Measured values as given in US20180263943A1, “COMPOUND FOR TREATMENT OF MYOTONIC DYSTROPHY TYPE 1” (UNIVERSITAT DE VALÈNCIA, ESTUDI GENERAL, priority 2014, published 2018).
“Also recorded” adds a separate entry of the source.

Experiments:
[1] = test system: Myosin heavy chain (Mhc)-Gal4 UAS-i(CTG)480 flies; test: Flight assay (landing height); assay type: in vivo, Drosophila; settings: five days
Method: Flight assays were performed five days after according to (Babcock et al. 2014 PMID: 24561810) using 100 male flies per group. Landing distance was compared between groups taking the compound and controls using t-student test (FIG. 8). The significance threshold was set to p<0.05.

[2] = test system: DM1 model flies [Mhc-Gal4 UAS-i(CTG)480>yw]; test: Histological analysis of indirect flight muscle area in DM1 model flies; assay type: in vivo, Drosophila; settings: oral administration
Method: Analysis of the indirect flight muscle area in Drosophila thoraces was performed as previously described (13). Briefly, six Drosophila thoraces of three-day-old females were embedded in Epon following standard procedures. After the drying of the resin, semi-thin sections of 1.5 μm were obtained using Ultracut E ultramicrotome system (Reichert & Jung and Leica). Images were taken at 100× magnification with a Leica DM2500 microscope. To quantify muscle area, five images per fly containing IFMs (indirect flight muscles) were converted into binary images. Considering the complete image as 100% of the area, the percentage occupied by pixels corresponding to IFMs was calculated using NIH ImageJ software. P-values were obtained using a two-tailed, non-paired t-test (α=0.05), applying Welch's correction when necessary.
For that purpose, DM1 model flies were fed with food containing 10 and 100 μM NAC for 7 days.
Histological analysis of muscles was performed in adult model flies [Mhc-Gal4 UAS-i(CTG)480>yw] and control flies (Mhc-Gal4>yw) which were fed for 7 days at 25° C. with standard media containing 10 and 100 μM NAC. After that period, six female thoraces were subjected to non-fluorescent histological analysis, as described above (FIG. 7).

[3] = test system: DM1 model flies (Mhc-Gal4 UASi(CTG)480>yw); test: Drosophila lifespan analyses with oral drug administration; assay type: in vivo; settings: for increase in mean life compared to that for untreated flies: oral, 29° C.; for median survival compared to untreated flies / survival / mean life expectancy of myotonic dystrophy type 1 model flies (summary): oral administration; for survival / mean life expectancy of myotonic dystrophy type 1 model flies (summary): tested at 10 and 100 μM
Method: Between 50-80 newly emerged flies were collected in freshly prepared tubes containing standard nutritive medium containing apoptosis or autophagic inhibitor drugs or solvent only (water or DMSO). Males and females were kept in different tubes at 29° C. Every day, the number of dead flies was scored. Flies were transferred to new tubes twice a week. NAC, chloroquine and NSCl (Sigma-Aldrich) were tested at 10 and 100 μM and dissolved in water or DMSO following the manufacturer's indications. Survival curves were obtained using the Kaplan-Meier method. Statistical curve comparisons were carried out according to the Gehan-Breslow-Wilcoxon test (α=0.05).
The effect of a chemical inhibition of apoptosis or autophagy in model flies (Mhc-Gal4 UASi(CTG)480>yw) was studied. Consequently, two different drugs previously described as autophagic inhibitors were tested. N-acetyl cysteine (NAC) blocks reactive oxygen species (ROS) and protects cells by inhibiting autophagy through activation of the PI3K/Akt/mTOR pathway (20), and chloroquine triggers autophagy inhibition raising lysosomal pH and, consequently, the fusion of autophagosome with lysosome, thus preventing lysosomal protein degradation [reviewed in (21)]. Both drugs were assayed at two different concentrations, 10 and 100 μM (FIGS. 5 A, B).
Additionally, the effects of apoptosis inhibition were assayed. NSCl, a caspase 3 inhibitor, was orally administered.

MBNL1 = MBNL1 nuclear protein levels in DM1 myoblasts (immunofluorescence); assay type: cell-based, human; settings: 0.1, 1, 10 and 100 μM, 24 h
Method: In order to determine whether NAC modifies MBNL1 protein levels and/or the number of ribonuclear foci, DM1 fibroblasts were transdifferentiated to myoblasts by induction of MyoD expression for 24 h. To this end, fibroblasts were aliquoted in 96-well plate (8×10^3 cells per well) and transdifferentiated to myoblast in DMD media over 24 hours before the addition of NAC was added at concentrations of 0.1, 1, 10 and 100 μM using DMSO and water as vehicle and remained in the media with the compound another 24 hours. Subsequently cells were fixed in 4% paraformaldehyde (PFA) for 10 min at room temperature followed by several washes in PBS 1×. Cells were then permeabilized with 0.3% Triton in PBS (PBT), blocked (PBT 1% donkey serum and 0.5% BSA) for 30 min at room temperature, and incubated with primary antibody (mouse anti-MBNL1 1:200; Sigma) at 4° C. overnight in order to detect MBNL1 with a monoclonal antibody. After several washes with PBT, cells were incubated for 45 min with biotin-conjugated secondary antibody (Sigma) at a 1:200 dilution. Cells were then incubated with ABC solution (ABC kit, VECTASTAIN) for 30 min at room temperature, followed by PBT washes and incubation with streptavidin-FITC (1:200) for 45 min. […] Images were taken using IN Cell Analyzer 2200 Imaging System and MBNL intensity in nuclei was counted using software designed for this system.

ribonuclear foci = test: Ribonuclear foci detection in DM1 cells (in situ hybridization); assay type: cell-based, human; settings: 0.1, 1, 10 and 100 μM, 24 h
Method: In addition, for ribonuclear foci detection, fibroblasts were aliquoted in 96-well plate (1.0×10^4 cells per well). Compound was added 24 hours after plating the cells. After 24 hours incubation with NAC at concentrations of 0.1, 1, 10 and 100 μM using DMSO and water as vehicle, cells were fixed in 4% paraformaldehyde (PFA) for 10 min at room temperature followed by several washes in PBS 1×. Fixed cells were incubated in pre-hybridization buffer (SSC 2×, 30% deionized formamide) for 30 min at room temperature, hybridized with Cy3-(CAG)7-Cy3 labelled probe diluted 1:500 in hybridization buffer (40% formamide, 2×SSC, 0.2% BSA, 10% dextran sulfate, 2 mM vanadyl complex, 10% tRNA (10 mg/mL), 10% herring sperm) for 2 hours at 37° C., washed twice in SSC2× buffer for 15 min at 45° C., washed in PBS 1× for 15 min at room temperature, incubated with Hoechst 33342 (5 mg/mL) diluted 1:2000 in PBS 1× for 20 min at room temperature and mounted with 20% MOWIOL. Images were taken using IN Cell Analyzer 2200 Imaging System and foci number was counted using software designed for this system.

DM1 fibroblasts = test: LysoTracker staining of autolysosomes in DM1 fibroblasts; assay type: cell-based, human; settings: 0.01, 1, 10 and 100 μM, 48 h
Method: A cell model of DM1 (provided by D. Furling's laboratory, Institute of Myologie, Paris) consisted of normal and DM1 (1300 CTG repeats) immortalized (hTERT) skin fibroblasts expressing conditional MyoD. Fibroblast cells were grown in Dulbecco's Modified Eagle Medium (DMEM) with 4.5 g/L of glucose, 1% of penicillin and streptomycin (P/S) and 10% foetal bovine serum (FBS) (Sigma). For compound testing, fibroblasts were aliquoted in 24-well plate at 3.5×10^4 cells per well. Each well contained a cover slip.
To this end, a cell model of DM1 was cultured as described above and NAC (Sigma-Aldrich) was added to afford final concentrations of 0.01, 1, 10 and 100 μM before incubating the cultures for 48 hours. To transdifferentiate fibroblasts into myoblasts by inducing expression of MyoD, cells were plated in muscle differentiation medium (MDM) containing DMEM 4.5 g/L glucose with 1% P/S, 2% horse serum, 1% apo-transferrin (10 mg/mL), 0.1% insulin (10 mg/mL) and 0.02% doxycyclin (10 mg/mL). After treatment with NAC, each well was washed twice with PBS and incubated with 100 nM LysoTracker RED-DND99 and 5 μg/mL Hoechst 33258 (Invitrogen and Sigma-Aldrich, respectively) at 37° C. for 30 min and mounted using fluorescence mounting medium (Dako, Glostrup, Denmark). Images from cell culture were obtained using a fluorescence microscope Leica DM4000 B LED at 400× magnification (FIG. 6).

Compound | landing height ([1]; 10 μM in food) | landing height ([1]; 100 μM in food) | muscle area of IFM versus water control ([2]; 10 μM) | muscle area of IFM versus water control ([2]; 100 μM) | increase in mean life compared to that for untreated flies ([3]; 10 μM in food) | median survival compared to untreated flies ([3]; 10 μM) | increase in mean life compared to that for untreated flies ([3]; 100 μM in food) | median survival compared to untreated flies ([3]; 100 μM) | survival / mean life expectancy of myotonic dystrophy type 1 model flies (summary) [3] | MBNL1 intensity in the nucleus / MBNL1 protein levels (MBNL1) | number of ribonuclear foci (ribonuclear foci) | autolysosomes (LysoTracker staining) compared to untreated DM1 fibroblasts (DM1 fibroblasts) | improvement of mean life ([3]; 10 μM (lower concentration), orally administered) [days]
CC(=O)N[C@@H](CS)C(=O)O [NAC, N-acetyl cysteine] | significantly higher landing height | significantly higher landing height | increase in muscle area | increase in muscle area | at least twice | increased median survival | at least twice | increased median survival | more than doubled | remains unchanged | does not modify; also recorded: neither modifies | dramatic decrease of autolysosomes; also recorded: dramatically reduce autolysosomes | 
COc1ccc(CN2C(=O)C(=O)c3cc(S(=O)(=O)N4CCC[C@H]4COc4cccnc4)ccc32)cc1 [NSCl, 1-(4-methoxybenzyl)-5-({(2S)-2-[(3-pyridinyloxy)methyl]-1-pyrrolidinyl}sulfonyl)-1H-indole-2,3-dione] |  |  |  |  |  | improvement in median survival |  | No effect | improved |  |  |  | 4
CCN(CC)CCCC(C)Nc1ccnc2cc(Cl)ccc12 (stereo not shown) [chloroquine] |  |  | increase in muscle area |  | at least twice | increased median survival | at least twice | increased median survival | more than doubled |  |  |  | 
